Test results published in patent US6300353A, “Azoles for treatment of fungal infections” (Basilea Pharmaceutica AG, a Swiss Company, priority 1998, dated 2001).
Like-named read-outs stand apart in the source and are kept apart here.

Tests used:
[1] = Conversion of compounds of formula (I') to compounds of formula (II) in human plasma; type: in vitro ADME; conditions: 37° C.; for remaining at 5 min / metabolised at 5 min: incubation time 5 min; for remaining at 5 min: read-out: Observed (%) Comp. (I'); for metabolised at 5 min: read-out: Observed (%) Compound (II)
Protocol: In addition, the azole of formula I' are chemically stable in aqueous solution at room temperature more than three days, but are efficiently converted into compounds of formula (II) in either mouse, rat, monkey or human plasma. The conversion of representatives of the new azole compounds of the general formula (I') to compounds of formula (II) in human plasma are shown in Table 4. The compounds of formula (I') were incubated with human plasma at a concentration of 10.quadrature.g/ml at 37° C. for up to 20 min.

physchem = conditions: water
Candida albicans = experiment: In vivo efficacy, systemic candidiasis model; conditions: in Rattus norvegicus, 336 h
Aspergillus fumigatus [2] = experiment: In vivo efficacy, systemic aspergillosis model; conditions: in Rattus norvegicus, 336 h
Aspergillus fumigatus [3] = experiment: In vivo efficacy, pulmonary aspergillosis model; conditions: in Rattus norvegicus, 336 h
CYP2C9 = CYP2C9 (Homo sapiens, UniProt P11712); experiment: In vitro P450 inhibitory activity (CYP2C9, tolbutamide 4-hydroxylation), human liver microsomes
CYP2C9, sequence (P11712 whole entry): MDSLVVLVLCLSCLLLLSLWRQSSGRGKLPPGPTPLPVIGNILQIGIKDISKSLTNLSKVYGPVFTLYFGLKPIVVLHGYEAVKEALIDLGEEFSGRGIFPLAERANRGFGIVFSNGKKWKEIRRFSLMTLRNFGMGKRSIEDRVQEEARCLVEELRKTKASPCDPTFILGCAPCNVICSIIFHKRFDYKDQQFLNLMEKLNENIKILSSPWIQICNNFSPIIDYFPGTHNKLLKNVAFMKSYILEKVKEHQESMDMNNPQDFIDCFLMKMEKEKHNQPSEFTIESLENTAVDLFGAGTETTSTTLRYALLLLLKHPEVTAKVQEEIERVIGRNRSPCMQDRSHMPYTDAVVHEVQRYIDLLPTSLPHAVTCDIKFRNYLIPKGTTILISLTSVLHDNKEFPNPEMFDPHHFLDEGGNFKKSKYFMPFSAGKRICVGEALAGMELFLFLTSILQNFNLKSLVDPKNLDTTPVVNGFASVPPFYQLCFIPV

CYP3A4 = CYP3A4 (Homo sapiens, UniProt P08684); experiment: In vitro P450 inhibitory activity (CYP3A4, midazolam 1-hydroxylation), human liver microsomes; type: in vitro ADME; conditions: midazolam 10 μM, 10 min, read-out: P450 inhibition IC50, CYP 3A4
CYP3A4, sequence (P08684 whole entry): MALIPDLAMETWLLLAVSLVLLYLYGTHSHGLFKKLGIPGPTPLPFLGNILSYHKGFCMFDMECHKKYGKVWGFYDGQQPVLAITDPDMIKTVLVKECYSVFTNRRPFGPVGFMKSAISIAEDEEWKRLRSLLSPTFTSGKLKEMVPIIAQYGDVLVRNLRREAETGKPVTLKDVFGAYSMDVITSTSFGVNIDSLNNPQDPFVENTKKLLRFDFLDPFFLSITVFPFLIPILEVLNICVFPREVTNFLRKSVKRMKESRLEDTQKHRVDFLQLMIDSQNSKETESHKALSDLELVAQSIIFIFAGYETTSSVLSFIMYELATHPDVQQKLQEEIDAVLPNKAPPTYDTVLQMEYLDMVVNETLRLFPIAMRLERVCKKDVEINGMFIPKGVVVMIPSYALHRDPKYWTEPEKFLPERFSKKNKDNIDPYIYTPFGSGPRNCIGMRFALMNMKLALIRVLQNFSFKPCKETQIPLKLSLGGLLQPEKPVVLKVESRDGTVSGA

[4] = po, read-out: Effective dose 50% (ED50), systemic candidiasis, p.o.
[5] = iv, read-out: Effective dose 50% (ED50), systemic aspergillosis, i.v.
[6] = iv, read-out: Effective dose 50% (ED50), pulmonary aspergillosis, i.v.

IC50 (CYP2C9) [µM]	Structure (SMILES)	half-life [1] [min]	remaining at 5 min [1] [%]	metabolised at 5 min [1] [%]	solubility (physchem) [mg/mL]	ED50 (Candida albicans; [4]) [µmol/kg]	ED50 (Aspergillus fumigatus [2]; [5]) [µmol/kg]	ED50 (Aspergillus fumigatus [3]; [6]) [µmol/kg]	also measured
–	CNCC(=O)Oc1c(C)cc(C[n+]2cnn(C[C@](O)(c3cc(F)ccc3F)[C@@H](C)c3nc(-c4ccc(C#N)cc4)cs3)c2)cc1C.[Br-] [Example 1, 1-{(2R,3R)-3-[4-(4-cyano-phenyl)-thiazol-2-yl]-2-(2,5-difluoro-phenyl)-2-hydroxy-butyl}-4-(3,5-dimethyl-4-methylaminoacetoxy-benzyl)-1H-[1,2,4]triazol-4-ium bromide]	< 1	< 5	96	22	5.3	3	8 ± 4.2	ED50 (Candida albicans; iv, read-out: Effective dose 50% (ED50), systemic candidiasis, iv.): 5.3 µmol/kg; ED50 (Aspergillus fumigatus [2]; po, read-out: Effective dose 50% (ED50), systemic aspergillosis, p.o.): 5.8 µmol/kg; ED50 (Aspergillus fumigatus [3]; po, read-out: Effective dose 50% (ED50), pulmonary aspergillosis, p.o.): 7.4 ± 3.8 µmol/kg
–	CNCC(=O)Oc1c(C)cc(C[n+]2cnn(C[C@](O)(c3cc(F)c(F)cc3F)[C@@H](C)c3nc(-c4ccc(C#N)cc4)cs3)c2)cc1C.Cl.[Br-] [Example 3, 1-[(2R,3R)-3-[4-(4-cyanophenyl)thiazol-2-yl]-2-hydroxy-2-(2,4,5-trifluorophenyl)butyl]-4-(3,5-dimethyl-4-methylaminoacetoxybenzyl)-1H-[1,2,4]triazol-4-ium bromide hydrochloride]	< 1	< 5	89	> 7	–	–	–	–
35.1	C[C@@H](c1nc(-c2ccc(C#N)cc2)cs1)[C@](O)(Cn1cncn1)c1cc(F)ccc1F [Example 4]	–	–	–	–	–	–	–	–
18.4	C[C@@H](c1nc(-c2ccc(C#N)cc2)cs1)[C@](O)(Cn1cncn1)c1cc(F)c(F)cc1F [Example 5]	–	–	–	–	–	–	–	IC50 (CYP3A4): 23 µM
–	OC(Cn1cncn1)(Cn1cncn1)c1ccc(F)cc1F [Fluconazole, reference compound]	–	–	–	–	1.4	–	–	–

Structure (SMILES)	IC50 (CYP2C9) [µM]	half-life [1] [min]	remaining at 5 min [1] [%]	metabolised at 5 min [1] [%]	solubility (physchem) [mg/mL]	ED50 (Candida albicans; [4]) [µmol/kg]	ED50 (Aspergillus fumigatus [2]; [5]) [µmol/kg]	ED50 (Aspergillus fumigatus [3]; [6]) [µmol/kg]	also measured
CCC(C)n1ncn(-c2ccc(N3CCN(c4ccc(OCC5COC(Cn6cncn6)(c6ccc(Cl)cc6Cl)O5)cc4)CC3)cc2)c1=O (stereo not shown) [Itraconazole, reference compound]	25.7	–	–	–	–	3.9 ± 2.2	4	2 ± 1.1	–
